US7947505B2, “Method for testing efficacy of antithrombotic agent” (priority 2005, dated 2011)
Like-named read-outs stand apart in the source and are kept apart here.

Experiments:
whole blood = conditions: ADP final concentration 8.3 μM or collagen 10 μg/mL, mean±standard deviation, cited from earlier work; for M A (maximum amplitude): in mm (unit assumed)
blood [1] = assay: Thromboelastograph of blood with no antithrombotic agent administered, with heparin or argatroban with or without ADP or collagen added; format: cell-based, human; conditions: for change of the R value lengthened by anticoagulant when ADP or collagen is added: blood coagulation function normal, no antithrombotic agent administered, heparin or argatroban present
From the text: (§1) The present invention is described below based on embodiments. The thromboelastograph will be described first. A thromboelastograph is an apparatus that tracks the process of blood coagulation by the clot elasticity in whole blood. […] The reaction time R representing the time when the range of the clot elasticity value reaches 2 mm, the coagulation time K representing the time when the range of the clot elasticity value reaches 20 mm, the maximum amplitude MA of the range of the clot elasticity values, the angle ANG formed by a tangent drawn on the graph of the changes in clot elasticity, and the like are obtained as numerical values based on the measurement chart, as shown in FIG. 1. The measurement procedure itself merely comprises placing the blood in a cuvette and beginning measurement. A C-TEG3000T machine made by Haemoscope of the United States was used as the thromboelastograph in the examples below.
(§2) The test method using the thromboelastograph will be described next in itemized form. 1) A thromboelastograph is used in measurement. The thromboelastograph used is one in which the measurement part has two or more channels, and the amount of fluid measured is 0.36 mL. 2) The blood of the patient being administered an antithrombotic agent is sampled by a blood sampling tube for coagulation testing. […] 3) 0.02 mL of 0.2 M calcium chloride and 0.32 mL of blood from the blood sampling tube are mixed with 0.01 mL of anticoagulant and 0.01 mL of physiological saline in the first measurement part (first channel) of the thromboelastograph. The calcium chloride neutralizes the citric acid admixed in the blood sampling tube, and coagulation begins. 4) 0.02 mL of 0.2 M calcium chloride and 0.32 mL of blood from the blood sampling tube are mixed with 0.01 mL of anticoagulant and 0.01 mL of adenosine diphosphate (ADP) or collagen in the second measurement part (second channel) of the thromboelastograph. The adenosine diphosphate (ADP) used here is 0.2 μmol of commercial reagent powder dissolved in 0.67 mL of physiological saline. Similarly, the collagen is 1 mg/mL stock solution diluted to a 36% solution by physiological saline. 5) The first channel and second channel are measured simultaneously by the thromboelastograph, and the R values measured on the thromboelastograph are compared. […] It is necessary in this case to strengthen the antithrombotic effect by measures such as increasing the dose or changing the antithrombotic agent being administered. The platelets in the second channel are believed to be readily activated by the ADP or collagen, and blood coagulation is accelerated. […] It is believed in this case that the platelets in the second channel are not readily activated by the ADP or collagen, and blood coagulation is not accelerated.
(§3) In the following examples and comparative examples, the addition of 0.02 mL of physiological saline of 0.2 M calcium chloride to the sampled blood and the addition of […] to the system without ADP or collagen added are common to all examples and are omitted from the explanations of each example and comparative example.
An example of the administration of sulpyrine will be described next. […] The measurement was the same as in Example 1. Blood with 0.1 U/mL of heparin or 0.31 μg/mL of argatroban added and blood with 8.3 μM of ADP or 10 μg/mL of collagen added to these were measured simultaneously by using a thromboelastograph.
An example of the administration of Pletaal will be described next. […] The amounts of heparin, argatroban, ADP, and collagen added were the same as in Example 2.
As a comparative example, blood obtained when no thrombotic agent (*1) had been administered was measured by thromboelastograph. Specifically, systems of heparin, ADP, and collagen added to blood that contained no thrombotic agent and, similarly, systems of argatroban, ADP, and collagen added to blood that contained no thrombotic agent were measured using a thromboelastograph.

[2] = test system: blood sampled from a patient being administered an antithrombotic agent; assay: Thromboelastograph of blood sampled after administration of an antithrombotic agent, with anticoagulant with or without ADP or collagen added; format: in vivo, human; conditions: for R value: ADP 8.3 μM, collagen 10 μg/mL
From the text: as §1, §2, §3
An example of the administration of aspirin as an antithrombotic agent will be described. First, 81 mg/day of aspirin was administered for three days. Blood sampled one hour after oral administration of 40.5 mg of aspirin thereafter was measured using a thromboelastograph. Specifically, thromboelastographic measurements were simultaneously carried out on the sampled blood itself, the same blood with 0.1 U/mL of heparin or 0.31 μg/mL of argatroban added, and blood obtained by adding 8.3 μM of ADP or 10 μg/mL of collagen to these.
Also, 660 mg/day of aspirin was administered for three days, and the blood sampled one hour after oral administration of 330 mg thereafter was measured in the same manner by using a thromboelastograph. […]

blood [3] = conditions: Hep 0.1 U/mL, ARG 0.3 μg/mL, Col 10 μg/mL, ADP 8.3 μM/L, cited from earlier work
[4] = Comparative Example, blood with no antithrombotic agent administered
[5] = no Pletaal administered (Example 3), heparin 0.1 U/mL, argatroban 0.31 μg/mL, ADP 8.3 μM, collagen 10 μg/mL
[6] = no sulpyrine administered (Example 2), heparin 0.1 U/mL, argatroban 0.31 μg/mL, ADP 8.3 μM, collagen 10 μg/mL

Compound: collagen [Col.]
- K (time it takes a clot to be formed) (whole blood; in min (unit assumed)): 2.5 ± 0.5
- R (time it takes for fibrin to be formed) (whole blood; in min (unit assumed)): 5.3 ± 1.4
- M A (maximum amplitude) (whole blood): 57.9 ± 3.9
- K (time it takes a clot to be formed) (whole blood; listed as collagen): no significant difference
- R (time it takes for fibrin to be formed) (whole blood; listed as collagen): shortens significantly
- R + K (whole blood; listed as collagen): shortens significantly
- R + K (whole blood): 7.8 ± 1.5
- change of the R value lengthened by anticoagulant when ADP or collagen is added (blood [1]): shortens significantly

Compound: Cc1c(N(C)CS(=O)(=O)[O-])c(=O)n(-c2ccccc2)n1C.[Na+] [Sulp, sulpyrine]
- assessment of efficacy of the administered dose (R value shortened by ADP and collagen or not) ([2]; 250 mg of sulpyrine injected intramuscularly): functions adequately
- R value ([2]; blood sampled one hour after intramuscular injection of 250 mg of sulpyrine, heparin 0.1 U/mL, argatroban 0.31 μg/mL): 6.9 ± 2.1

Compound: O=C1CCc2cc(OCCCCc3nnnn3C3CCCCC3)ccc2N1 [Cil, cilostazol]
- assessment of efficacy of the administered dose (R value shortened by ADP and collagen or not) ([2]; 200 mg/day of Pletaal): functions adequately
- R value ([2]; 200 mg/day of Pletaal for five days, blood sampled one hour after oral 100 mg, heparin 0.04 U/mL, argatroban 0.06 μg/mL): 14.5 ± 3.7
- time until the blood begins to coagulate ([2]; Pletaal administered, 0.1 U/mL of heparin and 0.31 μg/mL of argatroban used, R value could not be determined): more than 3 hours

Compound: CC(=O)Oc1ccccc1C(=O)O [ASP, aspirin]
- assessment of efficacy of the administered dose (R value shortened by ADP and collagen or not) ([2]; 81 mg/day of aspirin for three days): insufficient to function effectively
- R value ([2]; 81 mg/day of aspirin for three days, blood sampled one hour after oral 40.5 mg, heparin 0.1 U/mL, argatroban 0.31 μg/mL): 6.4 ± 1.5
- assessment of efficacy of the administered dose (R value shortened by ADP and collagen or not) ([2]; 660 mg/day of aspirin for three days): function adequately
- R value ([2]; 660 mg/day of aspirin for three days, blood sampled one hour after oral 330 mg, heparin 0.1 U/mL, argatroban 0.31 μg/mL): 6.67 ± 1.7

Compound: heparin
- R value (blood [1]; [4]): 26.4 ± 10.6
- R value (blood [1]; Comparative Example, blood with no antithrombotic agent administered, listed as heparin): lengthens
- R value (blood [1]; [5]): 28.6 ± 9.5
- R value (blood [1]; [6]): 26.4 ± 10.6
- A N G (rapidity of clot formation) (blood [3]): 39.1 ± 13.9
- K (blood [3]): 11.4 ± 6.2
- R (blood [3]): 26.4 ± 10.6
- K (blood [3]; listed as heparin): lengthen
- R (blood [3]; listed as heparin): lengthen

Compound: Nc1ncnc2c1ncn2[C@@H]1O[C@H](COP(=O)(O)OP(=O)(O)O)[C@@H](O)[C@H]1O [ADP, adenosine diphosphate]
- M A (maximum amplitude) (whole blood): 57.9 ± 2.6
- change of the R value lengthened by anticoagulant when ADP or collagen is added (blood [1]): shortens significantly

Compound: CC1CNc2c(cccc2S(=O)(=O)N[C@@H](CCCNC(=N)N)C(=O)N2CC[C@@H](C)C[C@@H]2C(=O)O)C1 (stereo partly shown) [ARG, argatroban]
- R value (blood [1]; [4]): 29.8 ± 11.5
- R value (blood [1]; Comparative Example, blood with no antithrombotic agent administered, listed as argatroban): lengthens
- R value (blood [1]; [5]): 29.7 ± 10.5
- R value (blood [1]; [6]): 29.8 ± 9.5
- A N G (rapidity of clot formation) (blood [3]): 44.5 ± 14.6
- K (blood [3]): 9.8 ± 5.1
- R (blood [3]): 29.8 ± 11.5
- K (blood [3]; listed as argatroban): lengthen
- R (blood [3]; listed as argatroban): lengthen
